From patent US12344600B2, “c-Myc mRNA translation modulators and uses thereof in the treatment of cancer” (Anima Biotech Inc., priority 2022, dated 2025)

System: c-Myc
Assay: c-Myc immunofluorescence assay
Format: cell-based, human
Conditions: A549 cells, 24 hours, anti-c-Myc immunofluorescence
Outline: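 A549 NSCLC cells grown 48 h, then treated 24 h with increasing compound concentrations; fixed in 4% paraformaldehyde, stained with anti-c-Myc antibody plus fluorescent secondary and DAPI. Per-cell c-Myc fluorescence quantified by high-content imaging at 20×; dose-response fitted by logistic regression to give EC50.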

SMILES: COc1ccc(-c2noc(N3CCC(C(=O)NCC4CCc5ccccc5O4)CC3)n2)cc1 (centres unmarked) [Compound 278, N-(chroman-2-ylmethyl)-1-(3-(4-methoxyphenyl)-1,2,4-oxadiazol-5-yl)piperidine-4-carboxamide]
- Myc Efficacy (−LogEC50): + (+ >3 and <5)

SMILES: CC[C@H](C)NC(=O)C1CCN(c2nc(-c3ccc(OC)cc3)no2)CC1 [Compound 279, (S)-N-(sec-butyl)-1-(3-(4-methoxyphenyl)-1,2,4-oxadiazol-5-yl)piperidine-4-carboxamide]
- Myc Efficacy (−LogEC50): + (+ >3 and <5)

SMILES: COc1ccc(-c2noc(N3CCC(C(=O)NC(c4ccccn4)C4CC4)CC3)n2)cc1 (centres unmarked) [Compound 280, N-(cyclopropyl(pyridin-2-yl)methyl)-1-(3-(4-methoxyphenyl)-1,2,4-oxadiazol-5-yl)piperidine-4-carboxamide]
- Myc Efficacy (−LogEC50): + (+ >3 and <5)

SMILES: COc1ccc(-c2noc(N3CCC(C(=O)NCc4ccc5c(c4)CCO5)CC3)n2)cc1 [Compound 281, N-((2,3-dihydrobenzofuran-5-yl)methyl)-1-(3-(4-methoxyphenyl)-1,2,4-oxadiazol-5-yl)piperidine-4-carboxamide]
- Myc Efficacy (−LogEC50): + (+ >3 and <5)

SMILES: COc1ccc(-c2noc(N3CCC(C(=O)NCCOc4ccccc4)CC3)n2)cc1 [Compound 282, 1-(3-(4-methoxyphenyl)-1,2,4-oxadiazol-5-yl)-N-(2-phenoxyethyl)piperidine-4-carboxamide]
- Myc Efficacy (−LogEC50): + (+ >3 and <5)

SMILES: COc1ccc(-c2noc(N3CCC(C(=O)NC4COc5ccccc54)CC3)n2)cc1 (centres unmarked) [Compound 283, N-(2,3-dihydrobenzofuran-3-yl)-1-(3-(4-methoxyphenyl)-1,2,4-oxadiazol-5-yl)piperidine-4-carboxamide]
- Myc Efficacy (−LogEC50): + (+ >3 and <5)

SMILES: COc1ccc(-c2noc(N3CCC(C(=O)NCc4ccccc4OC(F)F)CC3)n2)cc1 [Compound 284, N-(2-(difluoromethoxy)benzyl)-1-(3-(4-methoxyphenyl)-1,2,4-oxadiazol-5-yl)piperidine-4-carboxamide]
- Myc Efficacy (−LogEC50): + (+ >3 and <5)

SMILES: COc1ccc(-c2noc(N3CCC(C(=O)NCc4cc5ccccc5[nH]4)CC3)n2)cc1 [Compound 285, N-((1H-indol-2-yl)methyl)-1-(3-(4-methoxyphenyl)-1,2,4-oxadiazol-5-yl)piperidine-4-carboxamide]
- Myc Efficacy (−LogEC50): ++ (++ ≥5 and <6)

SMILES: C#CCCC1(CCN2CCC(CNC(=O)C3CCN(c4nc(-c5ccc(OC)cc5)no4)CC3)C2)N=N1 (centres unmarked) [Compound 286, N-((1-(2-(3-(but-3-yn-1-yl)-3H-diazirin-3-yl)ethyl)pyrrolidin-3-yl)methyl)-1-(3-(4-methoxyphenyl)-1,2,4-oxadiazol-5-yl)piperidine-4-carboxamide]
- Myc Efficacy (−LogEC50): ++ (++ ≥5 and <6)

SMILES: C#CCCC1(CCOc2ccc(-c3noc(N4CCC(C(=O)NCC5CCN(Cc6ccc(C)cc6)C5)CC4)n3)cc2)N=N1 (centres unmarked) [Compound 287, 1-(3-(4-(2-(3-(but-3-yn-1-yl)-3H-diazirin-3-yl)ethoxy)phenyl)-1,2,4-oxadiazol-5-yl)-N-((1-(4-methylbenzyl)pyrrolidin-3-yl)methyl)piperidine-4-carboxamide]
- Myc Efficacy (−LogEC50): +++ (+++ ≥6)

SMILES: C#CCCC1(CCOc2cccc(-c3noc(N4CCC(C(=O)NCC5CCN(Cc6ccc(C)cc6)C5)CC4)n3)c2)N=N1 (centres unmarked) [Compound 288, 1-(3-(3-(2-(3-(but-3-yn-1-yl)-3H-diazirin-3-yl)ethoxy)phenyl)-1,2,4-oxadiazol-5-yl)-N-((1-(4-methylbenzyl)pyrrolidin-3-yl)methyl)piperidine-4-carboxamide]
- Myc Efficacy (−LogEC50): ++ (++ ≥5 and <6)

SMILES: COc1ccc(-c2noc(N3CCC(C(=O)NC4CCOC5(CCCCC5)C4)CC3)n2)cc1 (centres unmarked) [Compound 289, 1-(3-(4-methoxyphenyl)-1,2,4-oxadiazol-5-yl)-N-(1-oxaspiro[5.5]undecan-4-yl)piperidine-4-carboxamide]
- Myc Efficacy (−LogEC50): + (+ >3 and <5)

SMILES: COc1ccc(-c2noc(N3CCC(C(=O)NC4COC5(CCCCC5)C4)CC3)n2)cc1 (centres unmarked) [Compound 290, 1-(3-(4-methoxyphenyl)-1,2,4-oxadiazol-5-yl)-N-(1-oxaspiro[4.5]decan-3-yl)piperidine-4-carboxamide]
- Myc Efficacy (−LogEC50): + (+ >3 and <5)

SMILES: COc1ccc(-c2noc(N3CCC(C(=O)NC4(C5CC5)CCOCC4)CC3)n2)cc1 [Compound 291, N-(4-cyclopropyltetrahydro-2H-pyran-4-yl)-1-(3-(4-methoxyphenyl)-1,2,4-oxadiazol-5-yl)piperidine-4-carboxamide]
- Myc Efficacy (−LogEC50): + (+ >3 and <5)

SMILES: COc1ccc(-c2noc(N3CCC(C(=O)NC4(C5CCCCC5)CC4)CC3)n2)cc1 [Compound 292, N-(1-cyclohexylcyclopropyl)-1-(3-(4-methoxyphenyl)-1,2,4-oxadiazol-5-yl)piperidine-4-carboxamide]
- Myc Efficacy (−LogEC50): + (+ >3 and <5)

SMILES: COc1ccc(-c2noc(N3CCC(C(=O)NC[C@@H]4CCCC[C@H]4O)CC3)n2)cc1 [Compound 293, N-(((1S,2R)-2-hydroxycyclohexyl)methyl)-1-(3-(4-methoxyphenyl)-1,2,4-oxadiazol-5-yl)piperidine-4-carboxamide]
- Myc Efficacy (−LogEC50): + (+ >3 and <5)

SMILES: COc1ccc(-c2noc(N3CCC(C(=O)NC4CC(O)C4(C)C)CC3)n2)cc1 (centres unmarked) [Compound 294, N-(3-hydroxy-2,2-dimethylcyclobutyl)-1-(3-(4-methoxyphenyl)-1,2,4-oxadiazol-5-yl)piperidine-4-carboxamide]
- Myc Efficacy (−LogEC50): + (+ >3 and <5)

SMILES: COc1ccc(-c2noc(N3CCC(C(=O)N[C@H]4[C@@H]5CN(C)C[C@@H]54)CC3)n2)cc1 [Compound 295, 1-(3-(4-methoxyphenyl)-1,2,4-oxadiazol-5-yl)-N-((1R,5S,6s)-3-methyl-3-azabicyclo[3.1.0]hexan-6-yl)piperidine-4-carboxamide]
- Myc Efficacy (−LogEC50): + (+ >3 and <5)

SMILES: COc1ccc(-c2noc(N3CCC(C(=O)NCC4(N(C)C)Cc5ccccc5C4)CC3)n2)cc1 [Compound 296, N-((2-(dimethylamino)-2,3-dihydro-1H-inden-2-yl)methyl)-1-(3-(4-methoxyphenyl)-1,2,4-oxadiazol-5-yl)piperidine-4-carboxamide]
- Myc Efficacy (−LogEC50): + (+ >3 and <5)

SMILES: COc1ccc(-c2noc(N3CCC(C(=O)NC(C)C(C)(C)O)CC3)n2)cc1 (centres unmarked) [Compound 297, N-(3-hydroxy-3-methylbutan-2-yl)-1-(3-(4-methoxyphenyl)-1,2,4-oxadiazol-5-yl)piperidine-4-carboxamide]
- Myc Efficacy (−LogEC50): + (+ >3 and <5)

SMILES: COc1ccc(-c2noc(N3CCC(C(=O)NC4(c5nc(C)cs5)CCC4)CC3)n2)cc1 [Compound 298, 1-(3-(4-methoxyphenyl)-1,2,4-oxadiazol-5-yl)-N-(1-(4-methylthiazol-2-yl)cyclobutyl)piperidine-4-carboxamide]
- Myc Efficacy (−LogEC50): + (+ >3 and <5)

SMILES: COc1ccc(-c2noc(N3CCC(C(=O)NC(CO)CC(F)(F)F)CC3)n2)cc1 (centres unmarked) [Compound 299, 1-(3-(4-methoxyphenyl)-1,2,4-oxadiazol-5-yl)-N-(4,4,4-trifluoro-1-hydroxybutan-2-yl)piperidine-4-carboxamide]
- Myc Efficacy (−LogEC50): + (+ >3 and <5)

SMILES: COc1ccc(-c2noc(N3CCC(C(=O)NCc4cccc(OC(C)C)c4)CC3)n2)cc1 [Compound 300, N-(3-isopropoxybenzyl)-1-(3-(4-methoxyphenyl)-1,2,4-oxadiazol-5-yl)piperidine-4-carboxamide]
- Myc Efficacy (−LogEC50): ++ (++ ≥5 and <6)
